Assay results published in US20130336899A1, “ANTIMICROBIAL FORMULATIONS THAT AID IN WOUND HEALING” (Purdue Research Foundation, priority 2010, published 2013).

How the values were obtained:
Assay type in all cases: cell-based
[1] = system: bacteria; assay: Bactericidal action of hypertonic sucrose with or without membrane permeabilizing agent
[2] = system: bacteria; assay: Bactericidal log reduction after 10 and 60 min treatment; conditions: for Log Red - 10 min: 10 min treatment; for Log Red - 60 min: 60 min treatment
Experimental: Referring now to FIG. 4, the bactericidal effect of osmopermeation is fast acting and occurs in less than 10 minutes, as shown. Finally, osmopermeation is wide spectrum in nature and effective in treating both Gram (+) and Gram (−) bacterial strains.

[3] = system: bacteria; assay: Cell viability with vital stain (propidium iodide, PI); conditions: thymol 2.66 mM, sucrose 1.17 OsM; after 1 hr
From the text: FIG. 3A. Photomicrographs of cells that were: untreated; or treated with sucrose, or thymol or sucrose and thymol (S+T).

[4] = system: S. aureus; assay: Dose response, MIC and combination index, 24 hrs of treatment; conditions: thymol emulsion
From the text: (§1) Responses represent 24 hrs of treatment. Six specific combinations (S+T) of sucrose and thymol are also plotted for each strain. The effect level (Fa) represents a value between 0 and 1.0 with 0 being no effect and 1.0 being all cells affected. (B) Normalized isobolograms defining the interaction between S and T. Numbered points correspond to the specific combinations enumerated in the table. Table denotes the minimum inhibitory concentrations (MICs) for each treatment as well as outcomes of the six S+T combinations. The nature of the two-treatment interaction is measured via the combination index (CI). The CI<1 is roughly defined as synergistic, ˜1 is additive and CI>1 is antagonistic. See Chou T C. “Theoretical basis, experimental design and computerized simulation of synergism and antagonism in drug combination studies”. Pharmacol. Rev. 2006; […]:621-81. Synergistic interactions were found in combinations with various hyperosmotic pressures and concentrations of the membrane permeabilizing agent.
(§2) Data collected with 4 strains of bacterial E. coli, E, faecalis, S. aureus and MRSA.

[5] = system: MRSA; assay: as above; conditions: thymol emulsion
From the text: as §1, §2

[6] = system: E. coli; assay: as above; conditions: thymol emulsion
From the text: as §1, §2

[7] = system: E. faecalis; assay: as above; conditions: thymol emulsion
From the text: as §1, §2

[8] = system: bacteria; assay: Measurement of 260/280 nm absorbing material (bacteriolysis, loss of intracellular proteins); conditions: sucrose 1.17 OsM, thymol 2.66 mM

SMILES	bactericidal effect [1]	Log Red - 10 min [2]	Log Red - 60 min [2]	effect on cell viability (PI vital stain) [3]	MICT [4] [mM]	MICT [5] [mM]	MICT [6] [mM]	MICT [7] [mM]	280 nm (A.U.) ([8]; absorbing material released)	absorbance at 260 nm ([8]; absorbing material released)	260/280 nm ([8]; ratio of absorbances)
OC[C@H]1O[C@@](CO)(O[C@H]2O[C@H](CO)[C@@H](O)[C@H](O)[C@H]2O)[C@@H](O)[C@@H]1O [Sucrose (S), sucrose]	no bactericidal effect and actually permits cell proliferation	<0.5	<0.2	little effect on cell viability							
Cc1ccc(C(C)C)c(O)c1 [Thymol (T), 2-isopropyl-5-methylphenol]	no significant bactericidal effect	~6.4	~6.7	little effect on cell viability	1.65	1.65	2.60	2.60	1.02	.99 A.U.	0.97
